Assays:
[1] = system: human prostate cancer cells (PC3); test: Cytotoxicity by SRB assay, prostate cancer cells; format: cell-based; conditions: for IC50: PC-3, 72 h, mean±SD
Protocol: (§1) The human prostate cancer cells (PC3) and human osteosarcoma cells (MG-63) were obtained from Nawah Scientific Inc. (Mokatam, Cairo, Egypt) and cultured in DMEM (Dulbecco's modified eagle's medium), Gibco, USA, supplemented with fetal bovine serum (FBS) at a concentration of 10% and 100 U/mL of penicillin and streptomycin (PS). The Cells were incubated at 37° C. in a humidified environment that contained 5% CO2.
(§2) The anticancer activity of 1-cyclopropyl-6-fluoro-4-oxo-7-(4-((5-oxo-2-phenyl-4-(quinolin-2-ylmethylene)-4,5-dihydro-1H-imidazol-1-yl)methyl)piperazin-1-yl)-1,4-dihydroquinoline-3-carboxylic acid was assessed against highly aggressive androgen-independent metastatic human prostate cancer cells (PC3) and osteosarcoma (MG-63) cells.
(§3) Cells were seeded in 96-well plates as aliquots of 100 μL cell suspension and incubated in a complete media for 24 h. afterward, cells were treated with 1-cyclopropyl-6-fluoro-4-oxo-7-(4-((5-oxo-2-phenyl-4-(quinolin-2-ylmethylene)-4,5-dihydro-1H-imidazol-1-yl)methyl)piperazin-1-yl)-1,4-dihydroquinoline-3-carboxylic acid at diverse concentrations ranging from 0.01 μM to 100 μM for 72 h. Then, cells were fixed at 4° C. for one hour with 150 μL of 10% trichloroacetic acid (TCA). After washing the cells five times with distilled water, 70 μL of sulforhodamine (SRB) solution (0.4% w/v) was added and incubated for 10 min at room temperature in a dark place. Cells were washed with 1% acetic acid three times and allowed to air-dry. Then, 150 μL of Tris pH 10.5 (10 mM) was added, and the absorbance was measured at 540 nm using a BMG LABTECH®-FLUOstar Omega microplate reader (Ortenberg, Germany). Half maximal inhibitory concentrations (IC50) values were calculated for each experiment using GraphPad Prism 6 software. IC50 values were reported as mean±SD.
(§4) The inhibition was calculated using the following equation: Inhibition %=100−Average Viability

Bovine Serum Albumin = Bovine Serum Albumin (Bos taurus, UniProt P02769); test: Bovine Serum Albumin assay (BSA), inhibition of protein denaturation; format: biochemical; conditions: pH 6.4, read-out: percentage inhibition of precipitation (protein denaturation)
Protocol: In vitro-inflammatory activities of the tested samples were determined using a modified method of the BSA assay reported by Williams et al. BSA solution (0.4%, w/v) was prepared in Tris Buffered Saline. The pH was adjusted to 6.4 with glacial acetic acid. Different dilutions of 20, 40, 60, 80, and 100 μg/mL of the stock solutions were added to test tubes containing 1 mL of 0.4%, w/v BSA buffer solution. Both negative (solvent) and positive (aspirin) controls were assayed in a similar manner. The solutions were then heated in a water bath at 72° C. for 10 minutes and cooled for 20 minutes under laboratory conditions. The turbidity of the solutions (level of protein precipitation) was measured at 660 nm in Spectrophotometer (V-770 UV-Visible/NIR Spectrophotometer).
The percentage inhibition of precipitation (protein denaturation) was determined relative to the negative control using the following equation: […]

[2] = system: human osteosarcoma cells (MG-63); test: Cytotoxicity by SRB assay, osteosarcoma cells; format: cell-based; conditions: MG-63, 72 h, mean±SD
Protocol: as §1, §2, §3, §4

Chain of Bovine Serum Albumin (P02769 25-607): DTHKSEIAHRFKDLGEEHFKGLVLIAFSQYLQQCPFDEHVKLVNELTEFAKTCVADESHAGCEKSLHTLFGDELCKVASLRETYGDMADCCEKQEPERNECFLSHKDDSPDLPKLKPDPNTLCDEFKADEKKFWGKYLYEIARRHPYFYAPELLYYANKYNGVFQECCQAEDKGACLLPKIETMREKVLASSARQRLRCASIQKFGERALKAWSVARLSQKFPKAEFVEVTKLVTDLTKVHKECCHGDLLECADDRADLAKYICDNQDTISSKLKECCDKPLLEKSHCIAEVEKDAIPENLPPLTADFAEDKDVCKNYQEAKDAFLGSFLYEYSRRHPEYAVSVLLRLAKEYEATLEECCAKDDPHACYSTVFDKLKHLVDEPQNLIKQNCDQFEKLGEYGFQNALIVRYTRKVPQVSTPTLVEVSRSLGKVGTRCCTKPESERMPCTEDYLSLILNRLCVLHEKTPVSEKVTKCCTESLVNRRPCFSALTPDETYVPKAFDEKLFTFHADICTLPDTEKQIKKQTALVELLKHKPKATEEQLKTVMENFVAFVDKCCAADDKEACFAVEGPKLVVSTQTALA

| melting point [°C] | inhibition at 100 µg/mL (Bovine Serum Albumin) [%] | SMILES | IC50 ([1]; Homo sapiens, 72 h) [µM] | inhibition at 10 µg/mL ([1]; Homo sapiens, 72 h, Prostate cancer (PC-3), 10 μg/ml) [%] | IC50 ([1]; listed as Our Product) [µM] | Inhibition % ([1]; Prostate cancer (PC-3), 10 μg/ml, 72 h) [%] | IC50 ([2]; Homo sapiens) [µM] | IC50 ([2]; listed as Our Product) [µM] |
| --- | --- | --- | --- | --- | --- | --- | --- | --- |
| 231 to 235 | 88.1 | O=C(O)c1cn(C2CC2)c2cc(N3CCN(CN4C(=O)/C(=C\c5ccc6ccccc6n5)N=C4c4ccccc4)CC3)c(F)cc2c1=O [Compound 4, 1-cyclopropyl-6-fluoro-4-oxo-7-(4-((5-oxo-2-phenyl-4-(quinolin-2-ylmethylene)-4,5-dihydro-1H-imidazol-1-yl)methyl)piperazin-1-yl)-1,4-dihydroquinoline-3-carboxylic acid] | < 4 | 94 | 2.88 ± 0.03 | 94.32 | < 4 | 3.38 ± 0.2 |
| – | – | COc1cccc2c1C(=O)c1c(O)c3c(c(O)c1C2=O)C[C@@](O)(C(=O)CO)C[C@@H]3O[C@H]1C[C@H](N)[C@H](O)[C@H](C)O1 [DOX, Doxorubicin, reference compound] | 7.6 ± 0.45 | – | – | – | 9.4 ± 1.1 | – |

— US11945800B1, “1-cyclopropyl-6-fluoro-4-oxo-7-(4-((5-oxo-2-phenyl-4-(quinolin-2-ylmethylene)-4,5-dihydro-1H-imidazol-1-yl)methyl)piperazin-1-yl)-1,4-dihydroquinoline-3-carboxylic acid as an anti-inflammatory and anticancer compound” (KING FAISAL UNIVERSITY, priority 2023, dated 2024)
